{"source": "patent US12285526B2", "about": "“Nanoparticle composition with reduced contaminant and production method thereof” (Shionogi & Co., Ltd., priority 2019, dated 2025)", "test": "Particle size of drug particles after bead mill grinding (Microtrac UPA 150 M)", "format": "physicochemical", "settings": "slurry with PVP K-25 3 w/w % and sodium lauryl sulfate 0.25 w/w % in water, pH 6.07-10.37; zirconia beads 0.5 mm; ground 120 minutes", "protocol": "Phenitoin (Shizuoka Caffein Co., Ltd.) (7.5 g, 5 w/w %) as a drug, polyvinylpyrrolidone (PVP K-25, BASF Japan Ltd.) (4.5 g, 3 w/w %) as a polymer compound, sodium lauryl sulfate (Cognis Japan Ltd.) (0.375 g, 0.25 w/w %) as a surfactant were dispersed in 137.6 g of purified water to prepare a slurry. The pH of the slurry was 3.88. The pH was adjusted by adding 1N aqueous sodium hydroxide solution to this slurry, and samples having various pH (pH 6.07, 6.68, 7.36, 8.14, 8.96, 10.37) were prepared.\nEach sample (100 g) and beads (217.3 g, filling ratio 70%) were charged into Dyno-mill Research Lab (manufactured by WAB), and the grinding process by the bead mill was carried out for 120 minutes (disc peripheral speed: 4 m/s, temperature: 20° C., fluid speed: 45 g/min). The beads used for the grinding process were YTZ ball (zirconia beads manufactured by Nikkato Corporation, with diameter of 0.5 mm). As used herein, the term “filling ratio” refers to the ratio (in percentage) of the true volume to the bulk volume of the beads, and hereinafter the same is applied.\nThe particle size of the drug particles after the grinding process was nano-order of less than 1 μm (D50 value). The particle size was determined using Microtrac UPA 150 M (MicrotracBEL Corp.). […]"}
{"smiles": "O=C1NC(=O)C(c2ccccc2)(c2ccccc2)N1", "note": "[Phenitoin, Phenytoin]", "values": [{"measurement": "particle size of the drug particles after the grinding process (D50 value)", "result": "less than 1 μm"}]}
